Results reported in PMC6789442, “Unraveling Hepcidin Plasma Protein Binding: Evidence from Peritoneal Equilibration Testing” (Pharmaceuticals, 2019).
Like-named read-outs stand apart in the source and are kept apart here.

Experiments:
[1] = tested on: plasma proteins; assay: Plasma protein binding percentage calculated from measured vs expected peritoneal clearance (MW-clearance curve); format: in vivo, human; conditions: (1 − measured PC / expected PC) × 100%; expected PC from Log10(PC) = 4.5744 – 0.05063 × cube root MW; ESRD patients in PET; mean (±sd)
Source text: Logarithmic transformation was used for PC data before statistical analysis, as the data was not normally distributed. In addition, we used a cube root scaling for MW, since transport rates are related to size and thus radius (r), and considering volume as a three-dimensional characteristic of the radius (r^3). The curve describing the relation between MW and PC of all analytes was estimated with a linear mixed model using a random slope and random intercept. The expected PC of each analyte could be calculated using its MW and the equation of the curve. We calculated the binding percentage as:Binding percentage (%) = (1 − (Measured PC)/(Expected PC)) × 100%.(3)
In this equation, the measured PC divided by the expected PC represents the free hormone fraction. The strength of a linear association between the clearances of two analytes was measured using Spearman’s correlation coefficient.

[2] = Solute concentration in blood (plasma/serum) before dialysis
Procedure: (§1) All were centrifuged at 2000 g for 10 min.
(§2) Measurements of urea, creatinine, and IgG were performed on a Cobas C8000 random access analyzer (Roche Diagnostics, Basel, Switzerland).
(§3) This MS-based assay determines total hepcidin (i.e., the sum of bound and unbound fraction). Peptide spectra were generated on a Microflex LT […] laser desorption/ionisation TOF MS platform (Bruker Daltonics, Hamburg, Germany). Hepcidin concentrations were expressed as nmol/L. The lower limit of quantification of this method was 0.5 nM.
Cortisol and testosterone were analyzed by Liquid Chromatography-Mass Spectrometry (LC-MS/MS) after protein precipitation and solid-phase extraction. Internal standard [^2H4]-cortisol and [^13C3]-testosterone (Isoscience, Ambler, PA, USA) was added to 100 µL serum. Subsequently, 300 µL acetonitrile with 0.1% formic acid was added for protein precipitation and 300 µL H2O was added to 200 µL supernatant followed by solid phase extraction (Oasis HLB 1cc, Waters, Milford, MA, USA). The eluate (methanol:isopropanol 95:5) was dried under a stream of N2 gas, reconstituted in methanol:water (3:7) and injected (10 µL) into an Agilent Technologies 1290 Infinity Ultra High Performance Liquid Chromatography (UHPLC)-system (Agilent Technologies, Agilent, Santa Clara, CA, USA) equipped with a BEH C18 (1.7 μm 2.1 × 50 mm) analytical column (Waters Corp.) at 60 °C. Mobile phase A (methanol:water 20:80 + 2 mM NH4CH3COO + 0.1% formic acid) and B (methanol:water 98:2 + 2 mM NH4CH3COO + 0.1% formic acid) were run in a gradient (0.4 mL/min). Start gradient 70:30 A:B for 2.5 min; then to 40:60 A:B in 3.5 min; followed by a gradient in 0.5 min to 2:98 to remain such for 0.5 min and thereafter to 70:30 A:B in 0.5 min and remain such for 0.5 min. […] Total run time was 8 min. A 9-point calibration curve was used (cortisol and testosterone, Steraloids). An Agilent 6490 tandem mass spectrometer (Agilent Technologies, Agilent, Santa Clara, CA, USA) was operated in the electrospray positive ion mode, with a capillary voltage 3.5 kV, fragmentor voltage 380 V, sheath gas temperature 350 °C, and gas temperature 150 °C with N2 collision gas. Two transitions (qualitative and quantitative) were monitored. Transitions (Q1 > Q3) were m/z 363.4 > 97.1 (34 V) and m/z 363.4 > 121.1 (25 V) for cortisol; m/z 367.4 > 97.1 (34 V) and m/z 367.4 > 121.1 (25 V) for [2H4]-cortisol. m/z 289.2 > 109.1 […] and m/z 289.2 > 97.1 […] for testosterone; m/z 292.3 > 112.1 […] and m/z 292.3 > 100.1 […] for 13C3-testosterone. Dwell time was 100 ms and 50 ms for cortisol and testosterone, respectively.

[3] = Peritoneal clearance from peritoneal equilibration test (PET); conditions: ESRD patients in PET; for Peritoneal Clearance t = 0–1 h Mean (sd): [Dialysate] t = 1 h / [Blood] t = 0 h × dialysate volume / 60 min, total blood concentration, N 14, 13 testosterone, 10 cortisol, 13 hepcidin
[4] = Solute concentration in peritoneal dialysate at 1 h dwell
Procedure: as §1, §2, §3
Testosterone and cortisol in peritoneal dialysate were analyzed by LC-MS/MS after solid-phase extraction. Sample preparation consisted of internal standard addition [13C3]-testosterone (Isoscience, Ambler, PA, USA) and […] (Isoscience) to 1000 µL dialysate and solid phase extraction (SPE) using Oasis® MCX 1cc cartridges (Waters Corp, Milford, MA, USA).
Columns were pre-equilibrated with 1 mL MeOH:IPA (95:5) and subsequently washed with 1 mL H2O. After application of the sample, columns were washed with 1 mL H2O:NH4OH (95:5) and 1 mL MeOH:H2O (20/80) + 2% HCOOH. The 300 µL eluate (MeOH) was dried under a stream of N2 gas, reconstituted in MeOH:H2O (30:70). A nine-point calibration series was used (using testosterone and cortisol both from Steraloids). Calibrators, quality controls, and samples (reconstituted in 100 µL) were injected (10 µL) into an Agilent Technologies 1290 Infinity VL UHPLC-system (Agilent Technologies, Santa Clara, USA), equipped with a BEH C18 (1.7 μm 2.1 X 50 mm) analytical column (Waters Corp., Milford, MA, USA) at 60 °C. Mobile phase A (MeOH/H2O (20:80) + 2 mM NH4CH3COO + 0.1% HCOOH) and B (MeOH/H2O (98:2) + 2 mM NH4CH3COO + 0.1% HCOOH) were run in a gradient (0.4 mL/min). The gradient program was as follows: Start gradient A:B (70:30) for 2.5 min; followed by a gradient in 2 min to A:B (60:40) and subsequent 2.5 min A:B (35:65). For column washing, a gradient 0.5 min A:B (98:2) was established to remain such for 0.5 min. The column was re-equilibrated to A:B (70:30) in 0.5 min and remained such for 0.5 min. […] An Agilent 6490 tandem mass spectrometer (Agilent Technologies, Santa Clara, CA, USA) was operated in the electrospray positive ion mode. Operating conditions were as follows: Capillary voltage 3.5 kV, fragmentor voltage 380 V, sheath gas temperature 350 °C, and gas temperature 150 °C. The collision energy was optimized between 25 and 34 eV for all solutes and Nitrogen was used as collision gas. Two mass transitions were monitored for each analyte and the internal standards. The first transition was used for quantification, the second for confirmation. The transitions (Q1 > Q3) were m/z 289 > 97 and m/z 289 > 109 for testosterone; m/z 292 > 100 and m/z 292 > 112 for [13C3]-testosterone; m/z 363 > 121 and m/z 363 > 97 for cortisol; m/z 367 > 121 and m/z 367 > 97 for [3H4]-cortisol. Total run time was 9 min.
For both total and free cortisol PC calculations, we used total cortisol measurements in dialysate, since we assume that all cortisol present in dialysate after 1 h of dwell time is free considering the large MW of its main binding protein corticosteroid binding globulin (MW 52 kDa).

[5] = rapidly excreted by the kidneys; cited from earlier work
Source text: Our finding that hepcidin is not predominantly bound is in line with other literature, in which a merely freely circulating hepcidin was observed using gel chromatography on human serum samples, followed by Liquid Chromatography-Mass Spectrometry (LC-MS/MS). In fact, other peptide hormones such as human growth hormone, insulin [28], and cardiac natriuretic hormones circulate freely, since peptide hormones are often water-soluble and can, therefore, easily be transported via the cardiovascular system without requiring carrier proteins. In addition, hepcidin is ...

[6] = in vivo
[7] = ESRD patients, serum at t = 0 h, equilibrium dialysis 5 h, 37 °C, 5 kDa membrane, HEPES buffer pH 7.40, LC-MS/MS, N = 9
[8] = peritoneal dialysate at 1 h dwell, 3.86% glucose solution, ESRD patients, total measurement, mean (sd), N 13 testosterone, 10 cortisol, 13 hepcidin

| Compound | Binding percentage (protein-bound fraction) [1] | [Plasma] t = 0 h Mean (sd), total concentration ([2]; in vivo) | Peritoneal Clearance t = 0–1 h Mean (sd) [3] | [Dialysate] t = 1 h Mean (sd) ([4]; in vivo) | Peritoneal Clearance t = 0–1 h Mean (sd) [6] | [Dialysate] t = 1 h Mean (sd) [4, 8] | further results |
| --- | --- | --- | --- | --- | --- | --- | --- |
| hepcidin | 40% (±23%) | 10.6 (9.1) nmol/L | 4337.5 (1713.1) µL/min | 1.2 (1.1) nmol/L | – | – | half-life [5]: several hours |
| C[C@]12CCC(=O)C=C1CC[C@@H]1[C@@H]2[C@@H](O)C[C@@]2(C)[C@H]1CC[C@]2(O)C(=O)CO [Cortisol, cortisol] | 91% (±3%) | 229.1 (134.4) nmol/L | – | – | 1439.0 (490.8) µL/min | 8.4 (5.8) nmol/L | [Plasma] t = 0 h Mean (sd), free cortisol [7]: 12.7 (7.7) nmol/L; Peritoneal Clearance t = 0–1 h Mean (sd), free cortisol ([3]; calculated with free serum cortisol at t = 0 h and total cortisol in dialysate at 1 h, N = 9): 25,030.8 (8123.9) µL/min; [Dialysate] t = 1 h Mean (sd), row of free cortisol ([4]; total cortisol measured in dialysate at 1 h, assumed to be all free, used for free cortisol clearance, mean (sd), N = 9): 8.4 (5.8) nmol/L |
| CN1CC(=O)NC1=N [Creatinine, creatinine] | – | – | – | 296.9 (119.9) µmol/L | 21,499.6 (5861.6) µL/min | – | [Plasma] t = 0 h Mean (sd) ([2]; in vivo): 542.0 (172.6) µmol/L |
| C[C@]12CC[C@H]3[C@@H](CCC4=CC(=O)CC[C@@]43C)[C@@H]1CC[C@@H]2O [Testosterone, testosterone] | 97% (±1.5%) | – | 507.7 (260.5) µL/min | – | – | 0.1 (0.1) nmol/L | [Plasma] t = 0 h Mean (sd), total concentration ([2]; ESRD patients undergoing PET, blood at t = 0 h, total = free and protein-bound, cortisol/testosterone LC-MS/MS, hepcidin WCX-TOF MS, mean (sd), N 13 testosterone, 10 cortisol, 13 hepcidin): 8.6 (7.3) nmol/L |
| NC(N)=O [Urea, urea] | – | – | 26,959.1 (6211.8) µL/min | – | – | – | [Plasma] t = 0 h Mean (sd) ([2]; ESRD patients on peritoneal dialysis undergoing PET, blood drawn before dialysis (t = 0 h), endogenous solute, mean (sd), N = 14): 21.5 (6.6) mmol/L; [Dialysate] t = 1 h Mean (sd) ([4]; peritoneal dialysate at 1 h dwell, 3.86% glucose solution, ESRD patients, mean (sd), N = 14): 15.0 (6.1) mmol/L |
